From patent US20110104186A1, “Small molecule immunopotentiators and assays for their detection” (priority 2004, published 2011)

system: TNF-α production; experiment: In vitro inhibition of TNF-α production by 1H-imidazoquinolines; assay type: cell-based

Molecule	IC50
1-[2-(methyloxy)phenyl]-4-{[3,4,5-tris(methyloxy)phenyl]carbonyl} piperazine [Example 16]	8.02 µM
1-[(3-fluorophenyl)carbonyl]-4-{[4-(trifluoromethyl)phenyl] methyl}piperazine [Example 12]	3.66 µM
3-({4-[(2E)-3-phenylprop-2-enyl]piperazin-1-yl}carbonyl)-7-oxabicyclo[2.2.1]heptane-2-carboxylic acid [Example 15]	3.68 µM
3-[(4-pyridin-2-ylpiperazin-1-yl)carbonyl]-7-oxabicyclo[2.2.1]heptane-2-carboxylic acid [Example 17]	2.67 µM
3-pentyl-7-[(4-phenylpiperazin-1-yl)carbonyl]-2-thioxo-2,3-dihydroquinazolin-4(1H)-one [Example 18]	> 10 µM
4-({2-[(4-chlorophenyl)amino]-1-methyl-1H-benzimidazol-5-yl}oxy)-N-1,3-thiazol-2-ylpyridine-2-carboxamide [Example 9]	0.205 µM
CNC(=O)c1cc(Oc2ccc3[nH]c(Nc4ccccc4C(C)C)nc3c2)ccn1 [Example 2, N-methyl-4-[(2-{[2-(1-methylethyl)phenyl]amino}-1H-benzimidazol-5-yl)oxy]pyridine-2-carboxamide]	4.81 µM
CCOc1ccccc1C(=O)N1CCN(c2cccc(Cl)c2)CC1 [Example 14, 1-(3-chlorophenyl)-4-{[2-(ethyloxy)phenyl]carbonyl}-piperazine]	1.38 µM
COc1cccc(C(=O)N2CCc3cc(OC)c(OC)cc3C2C)c1 (stereo not drawn) [Example 22]	> 10 µM
